Measured values taken from patent US20220267380A1, “Glycopeptides Increasing Lipid Synthesis” (TFCHEM, priority 2019, published 2022).

System: normal human dermal fibroblasts (NHDF)
Test: Gene expression in NHDF, full transcriptome analysis with Affymetrix U219 microarray
Assay type: cell-based
Details: 10 mg/ml
Procedure: In the present study, the transcriptional effects (modulation of gene expression) of compounds 1, 2, 3 and 4 were evaluated on normal human dermal fibroblasts (NHDF) under basal conditions.
More specifically, the comparative analysis of the different transcriptomic profiles was performed using an Affymetrix GeneAtlas platform and the human “full transcriptome” U219 chip, which includes 36,000 transcripts and variants.
Fibroblasts were seeded in 24-well plates and cultured in culture medium for 24 hours. The medium was then replaced by assay medium and cells were incubated for further 24 hours. The medium was replaced by assay medium containing or not (control) the test compounds at different concentrations and the cells were preincubated for 24 hours. All experimental conditions were performed in triplicate. At the end of incubation, the culture supernatants were removed and the cells were washed in a phosphate buffered saline (PBS) solution and immediately frozen at −80° C.
Before RNA extraction, the replicates were pooled. Total RNA was extracted from each sample using TriPure Isolation Reagent® according to the supplier's instructions. The amount and quality of total RNA were evaluated for all samples using capillary electrophoresis (Bioanalyzer 2100, Agilent technologies). From each RNA, a labeled and amplified anti-sens RNA (aRNA) was obtained using GeneChip 3′IVT PLUS Kit (Affymetrix). For each labeled and amplified aRNA sample the profiles were evaluated before and after fragmentation using capillary electrophoresis (Bioanalyzer 2100, Agilent technologies). Hybridization of fragmented aRNA onto Affymetrix® U219 chip (36,000 transcripts and variants) was performed in the GeneAtlas™ fluidics Affymetrix® hybridization station for 20 hours at 45° C. U219 chip was analyzed using the GeneAtlas™ Imaging station (Affymetrix®—resolution 2 μm) to generate fluorescence intensity data.
Expression Console and Quality controls: data were normalized with the Expression Console (Affymetrix®) software using RMA algorithm. Then a quality control of the labeling and the hybridization was performed. Hybridization and labeling steps successfully passed the quality controls for these experiments.
Data reduction, Excel file description: once normalized with Expression Console, data were transferred into a Microsoft Excel® file in order to go further into data reduction.
Calculation and tools were added in order to rank and sort data, and finally to support data interpretation. Detection thresholds in terms of fold change were defined and applied on normalized data.
Results are considered and presented or commented per gene (and not probe). A probe set is a collection of probes designed to interrogate a given sequence of a gene. For data interpretation, the most important relative expression value obtained with one probe is considered to be representative of the corresponding gene. The file contains the following data: • Relative expression (RE) for each sample, • Fold change calculation, • Gene information.

[1] = relative expression adjusted to detection limit (<20), NHDF, 24 h
[2] = signed value, Tables 13-14, NHDF

## C[C@H](NC(=O)[C@H](C)NC(=O)[C@@H](N)CCCCNCC(F)(F)[C@]1(O)O[C@H](CO)[C@H](O)[C@H](O)[C@H]1O)C(=O)O [Compound 1]
[1]
  REadj2, PCYT2: 188.93
  REadj2, PLD1: 176.07
  REadj2, PTPLA: 498.96
  REadj2, SOAT1: 390.22
  REadj2, SREBF1: 519.22
Relative expression adjusted to detection limit (<20), NHDF, 24 h, probe set 11716114_x_at
  REadj2, POR: 256.70
Relative expression adjusted to detection limit (<20), NHDF, 24 h, probe set 11716987_a_at
  REadj2, HMGCS1: 875.52
Relative expression adjusted to detection limit (<20), NHDF, 24 h, probe set 11717859_a_at
  REadj2, EBP: 582.73
Relative expression adjusted to detection limit (<20), NHDF, 24 h, probe set 11718366_s_at
  REadj2, FDPS: 2391.43
Relative expression adjusted to detection limit (<20), NHDF, 24 h, probe set 11719098_a_at
  REadj2, MVK: 135.62
Relative expression adjusted to detection limit (<20), NHDF, 24 h, probe set 11724792_a_at
  REadj2, PGS1: 118.91
Relative expression adjusted to detection limit (<20), NHDF, 24 h, probe set 11730180_s_at
  REadj2, KDSR: 1037.81
Relative expression adjusted to detection limit (<20), NHDF, 24 h, probe set 11730181_s_at
  REadj2, KDSR: 549.40
Relative expression adjusted to detection limit (<20), NHDF, 24 h, probe set 11736100_a_at
  REadj2, GBA: 445.83
Relative expression adjusted to detection limit (<20), NHDF, 24 h, probe set 11736285_a_at
  REadj2, CHKA: 104.91
Relative expression adjusted to detection limit (<20), NHDF, 24 h, probe set 11736286_a_at
  REadj2, CHKA: 120.28
Relative expression adjusted to detection limit (<20), NHDF, 24 h, probe set 11737039_a_at
  REadj2, PHLDB2: 119.06
Relative expression adjusted to detection limit (<20), NHDF, 24 h, probe set 11737041_a_at
  REadj2, PHLDB2: 128.19
Relative expression adjusted to detection limit (<20), NHDF, 24 h, probe set 11737042_s_at
  REadj2, PHLDB2: 120.07
Relative expression adjusted to detection limit (<20), NHDF, 24 h, probe set 11737043_x_at
  REadj2, PHLDB2: 178.68
Relative expression adjusted to detection limit (<20), NHDF, 24 h, probe set 11743916_a_at
  REadj2, NPC1: 361.48
Relative expression adjusted to detection limit (<20), NHDF, 24 h, probe set 11745459_a_at
  REadj2, FADS1///MIR1908: 1633.20
Relative expression adjusted to detection limit (<20), NHDF, 24 h, probe set 11746723_a_at
  REadj2, NPC1: 192.21
Relative expression adjusted to detection limit (<20), NHDF, 24 h, probe set 11747747_a_at
  REadj2, MVK: 83.27
Relative expression adjusted to detection limit (<20), NHDF, 24 h, probe set 11748368_x_at
  REadj2, POR: 269.37
Relative expression adjusted to detection limit (<20), NHDF, 24 h, probe set 11748428_a_at
  REadj2, PGS1: 84.52
Relative expression adjusted to detection limit (<20), NHDF, 24 h, probe set 11749332_x_at
  REadj2, EBP: 445.85
Relative expression adjusted to detection limit (<20), NHDF, 24 h, probe set 11750975_x_at
  REadj2, GBA: 439.06
Relative expression adjusted to detection limit (<20), NHDF, 24 h, probe set 11751085_a_at
  REadj2, GBA: 451.06
Relative expression adjusted to detection limit (<20), NHDF, 24 h, probe set 11751086_x_at
  REadj2, GBA: 338.51
Relative expression adjusted to detection limit (<20), NHDF, 24 h, probe set 11751627_a_at
  REadj2, KDSR: 533.05
Relative expression adjusted to detection limit (<20), NHDF, 24 h, probe set 11752670_a_at
  REadj2, FADS1///MIR1908: 2502.62
Relative expression adjusted to detection limit (<20), NHDF, 24 h, probe set 11753440_x_at
  REadj2, GBA: 229.00
Relative expression adjusted to detection limit (<20), NHDF, 24 h, probe set 11754918_s_at
  REadj2, HMGCS1: 929.88
Relative expression adjusted to detection limit (<20), NHDF, 24 h, probe set 11755251_x_at
  REadj2, FADS1///MIR1908: 1571.10
Relative expression adjusted to detection limit (<20), NHDF, 24 h, probe set 11758249_s_at
  REadj2, FDPS: 2098.38
[2]
  Fold change, ABCA1: 2.112
  Fold change, ABHD5: 2.634
  Fold change, ACAT2: 2.124
  Fold change, ACSS2: 2.288
  Fold change, ADORA2B: 2.461
  Fold change, AKR1B1: 4.194
  Fold change, AKR1C1/AKR1C2: 2.597
  Fold change, ALDH1A3: −3.504
  Fold change, ANGPT1: −2.510
  Fold change, CD9: 2.337
  Fold change, CH25H: −2.770
  Fold change, CHKA: 2.999
  Fold change, CLN3: 2.570
  Fold change, CYP19A1: 2.736
  Fold change, CYP51A1: 2.202
  Fold change, DHCR7: 3.675
  Fold change, DHCR24: 2.267
  Fold change, EBP: 2.685
  Fold change, EGR1: −2.928
  Fold change, FADS1: 4.196
  Fold change, FADS2: 2.642
  Fold change, FDPS: 2.104
  Fold change, FGF2: 2.008
  Fold change, FOS: −2.521
  Fold change, GBA: 3.016
  Fold change, GPER1: 2.031
  Fold change, GRP: −2.699
  Fold change, HMGCR: 2.018
  Fold change, HMOX1: 5.168
  Fold change, HSD3B7: 2.132
  Fold change, HSD17B7: 2.443
  Fold change, HTR2B: 2.118
  Fold change, IDI1: 2.013
  Fold change, IGFBP2: −2.717
  Fold change, INSIG1: 3.422
  Fold change, KDSR: 2.288
  Fold change, LDLR: 2.988
  Fold change, LPIN1: 2.458
  Fold change, LSS: 2.527
  Fold change, MAP3K8: 3.713
  Fold change, ME1: 2.548
  Fold change, MVD: 2.448
  Fold change, MVK: 2.082
  Fold change, NGF: −2.648
  Fold change, NPC1: 6.532
  Fold change, NRG1: −2.111
  Fold change, NSMAF: 2.624
  Fold change, NTN1: 2.832
  Fold change, PCYT2: 2.412
  Fold change, PDE5A: −3.902
  Fold change, PDK4: −2.280
  Fold change, PGS1: 2.410
  Fold change, PLAU: −2.785
  Fold change, PLD1: 2.155
  Fold change, POR: 2.200
  Fold change, PTGS1: 3.893
  Fold change, RAB27A: 2.279
  Fold change, RUNX1: 2.441
  Fold change, S1PR1: 2.651
  Fold change, SCD: 7.772
  Fold change, SEMA3A: −3.169
  Fold change, SERINC2: 2.635
  Fold change, SLC1A3: 4.715
  Fold change, SOAT1: 2.012
  Fold change, SOCS3: 3.734
  Fold change, SREBF1: 3.237
  Fold change, ST6GALNAC5: 2.080
  Fold change, STC1: 3.016
